Source: EP1171107B1, “USE OF A PHARMACEUTICAL COMPOSITION IN THE MANUFACTURE OF A MEDICAMENT FOR THE TREATMENT OF PATHOLOGICAL CONDITIONS OF THE EYE CAUSED BY BACTERIA, VIRUSES, FUNGI, YEASTS AND PROTOZOA” (Dr. GERHARD MANN chem.-pharm. Fabrik GmbH, priority 1999, dated 2000)

What was measured:
Format in all cases: cell-based
E.coli [1] = test: Quantitative germ count (re-isolation, surface method) after inoculating the test preparation; details: Ausgangskeimzahl 2,7 x 10^5 KBE/ml
H.influenzae [2] = test: as above; details: Ausgangskeimzahl 2,8 x 10^5 KBE/ml
How it was run: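 Surviving germs were counted by the surface method: an aliquot was spiral-plated on Kochblut-Agar and incubated at 33±2°C for max. 4 Tage, giving re-isolated counts in KBE/ml with a detection limit of 100 KBE/ml. Initial germ counts were also set by spiral-plater surface plating. The H. influenzae strain was pretested biochemically for identity and purity.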

S.aureus = test: as above; details: Ausgangskeimzahl 2,6 x 10^5 KBE/ml
How it was run: (§1)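 Test preparations were contaminated with ca. 10^5 CFU/ml of each strain, then sampled at 2, 6, 8, 24, 32, 48 and 72 h. Cells were centrifuged 10 min at 3000 rpm, washed in NaCl-peptone buffer, resuspended and spiral-plated on Caso agar at 33±2°C for max. 4 days. Detection limit was 100 CFU/ml.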

Sc. pneumoniae [3] = test: as above; details: Ausgangskeimzahl 3,7 x 10^5 KBE/ml
How it was run: as §1

P.aeruginosa [4] = test: as above; details: Ausgangskeimzahl 2,7 x 10^5 KBE/ml
How it was run: as §1

S.epidermidis [5] = test: as above; details: Ausgangskeimzahl 2,1 x 10^5 KBE/ml
How it was run: as §1

E.coli [6] = test: Qualitative examination: enrichment of the inoculated test preparation in broth
How it was run: (§2)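 Test preparations (5 ml) were inoculated with ca. 10^5 CFU/ml and sampled after 2, 6, 8, 24, 32, 48 and 72 h. Cells were pelleted, washed and resuspended in NaCl-peptone buffer; 2 ml went into 20 ml Caso broth (Fildes medium for H. influenzae), incubated up to 4 days at 33±2°C.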

S.epidermidis [7] = test: as above
How it was run: as §2

Sc. pneumoniae [8] = test: as above
How it was run: as §2

H.influenzae [9] = test: as above
How it was run: as §2

P.aeruginosa [10] = test: as above
How it was run: as §2

For “Benzalkoniumchlorid [Benzalkoniumchlorid 0,0025 Gew.-%]”, the “Ergebnis der Reisolierung (in KBE/ml)” value (E.coli [1]; 2 h after inoculation) was <100 KBE/ml, the “Ergebnis der Reisolierung (in KBE/ml)” value (E.coli [1]; 4 h after inoculation) was <100 KBE/ml and the “Ergebnis der Reisolierung (in KBE/ml)” value (E.coli [1]; 6 h after inoculation) was <100 KBE/ml. The “Ergebnis der Reisolierung (in KBE/ml)” value (E.coli [1]; 8 h after inoculation) was <100 KBE/ml, the “Ergebnis der Reisolierung (in KBE/ml)” value (E.coli [1]; 24 h after inoculation) was <100 KBE/ml and the “Ergebnis der Reisolierung (in KBE/ml)” value (E.coli [1]; 32 h after inoculation) was <100 KBE/ml. The “Ergebnis der Reisolierung (in KBE/ml)” value (E.coli [1]; 48 h after inoculation) was <100 KBE/ml, the “Ergebnis der Reisolierung (in KBE/ml)” value (E.coli [1]; 72 h after inoculation) was <100 KBE/ml and the “Ergebnis der Reisolierung (in KBE/ml)” value (H.influenzae [2]; 2 h after inoculation) was <100 KBE/ml. The “Ergebnis der Reisolierung (in KBE/ml)” value (H.influenzae [2]; 4 h after inoculation) was <100 KBE/ml, the “Ergebnis der Reisolierung (in KBE/ml)” value (H.influenzae [2]; 6 h after inoculation) was <100 KBE/ml and the “Ergebnis der Reisolierung (in KBE/ml)” value (H.influenzae [2]; 8 h after inoculation) was <100 KBE/ml. The “Ergebnis der Reisolierung (in KBE/ml)” value (H.influenzae [2]; 24 h after inoculation) was <100 KBE/ml, the “Ergebnis der Reisolierung (in KBE/ml)” value (H.influenzae [2]; 32 h after inoculation) was <100 KBE/ml and the “Ergebnis der Reisolierung (in KBE/ml)” value (H.influenzae [2]; 48 h after inoculation) was <100 KBE/ml. For the same substance, the “Ergebnis der Reisolierung (in KBE/ml)” value (H.influenzae [2]; 72 h after inoculation) was <100 KBE/ml, the “Ergebnis der Reisolierung (in KBE/ml)” value (S.aureus; 2 h after inoculation) was <100 KBE/ml and the “Ergebnis der Reisolierung (in KBE/ml)” value (S.aureus; 4 h after inoculation) was <100 KBE/ml. The “Ergebnis der Reisolierung (in KBE/ml)” value (S.aureus; 6 h after inoculation) was <100 KBE/ml, the “Ergebnis der Reisolierung (in KBE/ml)” value (S.aureus; 8 h after inoculation) was <100 KBE/ml and the “Ergebnis der Reisolierung (in KBE/ml)” value (S.aureus; 24 h after inoculation) was <100 KBE/ml. The “Ergebnis der Reisolierung (in KBE/ml)” value (S.aureus; 32 h after inoculation) was <100 KBE/ml, the “Ergebnis der Reisolierung (in KBE/ml)” value (S.aureus; 48 h after inoculation) was <100 KBE/ml and the “Ergebnis der Reisolierung (in KBE/ml)” value (S.aureus; 72 h after inoculation) was <100 KBE/ml. The “Ergebnis der Reisolierung (in KBE/ml)” value (Sc. pneumoniae [3]; 2 h after inoculation) was <100 KBE/ml, the “Ergebnis der Reisolierung (in KBE/ml)” value (Sc. pneumoniae [3]; 4 h after inoculation) was <100 KBE/ml and the “Ergebnis der Reisolierung (in KBE/ml)” value (Sc. pneumoniae [3]; 6 h after inoculation) was <100 KBE/ml. For the same substance, the “Ergebnis der Reisolierung (in KBE/ml)” value (Sc. pneumoniae [3]; 8 h after inoculation) was <100 KBE/ml, the “Ergebnis der Reisolierung (in KBE/ml)” value (Sc. pneumoniae [3]; 24 h after inoculation) was <100 KBE/ml and the “Ergebnis der Reisolierung (in KBE/ml)” value (Sc. pneumoniae [3]; 32 h after inoculation) was <100 KBE/ml. For the same substance, the “Ergebnis der Reisolierung (in KBE/ml)” value (Sc. pneumoniae [3]; 48 h after inoculation) was <100 KBE/ml, the “Ergebnis der Reisolierung (in KBE/ml)” value (Sc. pneumoniae [3]; 72 h after inoculation) was <100 KBE/ml and the “Ergebnis der Reisolierung (in KBE/ml)” value (P.aeruginosa [4]; 2 h after inoculation) was <100 KBE/ml. The “Ergebnis der Reisolierung (in KBE/ml)” value (P.aeruginosa [4]; 4 h after inoculation) was <100 KBE/ml, the “Ergebnis der Reisolierung (in KBE/ml)” value (P.aeruginosa [4]; 6 h after inoculation) was <100 KBE/ml and the “Ergebnis der Reisolierung (in KBE/ml)” value (P.aeruginosa [4]; 8 h after inoculation) was <100 KBE/ml. For the same substance, the “Ergebnis der Reisolierung (in KBE/ml)” value (P.aeruginosa [4]; 24 h after inoculation) was <100 KBE/ml, the “Ergebnis der Reisolierung (in KBE/ml)” value (P.aeruginosa [4]; 32 h after inoculation) was <100 KBE/ml and the “Ergebnis der Reisolierung (in KBE/ml)” value (P.aeruginosa [4]; 48 h after inoculation) was <100 KBE/ml. For the same substance, the “Ergebnis der Reisolierung (in KBE/ml)” value (P.aeruginosa [4]; 72 h after inoculation) was <100 KBE/ml, the “Ergebnis der Reisolierung (in KBE/ml)” value (S.epidermidis [5]; 2 h after inoculation) was <100 KBE/ml and the “Ergebnis der Reisolierung (in KBE/ml)” value (S.epidermidis [5]; 4 h after inoculation) was <100 KBE/ml. For the same substance, the “Ergebnis der Reisolierung (in KBE/ml)” value (S.epidermidis [5]; 6 h after inoculation) was <100 KBE/ml, the “Ergebnis der Reisolierung (in KBE/ml)” value (S.epidermidis [5]; 8 h after inoculation) was <100 KBE/ml and the “Ergebnis der Reisolierung (in KBE/ml)” value (S.epidermidis [5]; 24 h after inoculation) was <100 KBE/ml. For the same substance, the “Ergebnis der Reisolierung (in KBE/ml)” value (S.epidermidis [5]; 32 h after inoculation) was <100 KBE/ml, the “Ergebnis der Reisolierung (in KBE/ml)” value (S.epidermidis [5]; 48 h after inoculation) was <100 KBE/ml and the “Ergebnis der Reisolierung (in KBE/ml)” value (S.epidermidis [5]; 72 h after inoculation) was <100 KBE/ml. For the same substance, the “Ergebnis der Reisolierung qualitiativ (+/-) nach Anreicherung” value (shortened to “Ergebnis der Reisolierung qualitiativ”) (E.coli [6]; 2 h after inoculation) was “-”, the “Ergebnis der Reisolierung qualitiativ” value (E.coli [6]; 4 h after inoculation) was “-” and the “Ergebnis der Reisolierung qualitiativ” value (E.coli [6]; 6 h after inoculation) was “-”. The “Ergebnis der Reisolierung qualitiativ” value (E.coli [6]; 8 h after inoculation) was “-”, the “Ergebnis der Reisolierung qualitiativ” value (E.coli [6]; 24 h after inoculation) was “-” and the “Ergebnis der Reisolierung qualitiativ” value (E.coli [6]; 32 h after inoculation) was “-”. The “Ergebnis der Reisolierung qualitiativ” value (E.coli [6]; 48 h after inoculation) was “-”, the “Ergebnis der Reisolierung qualitiativ” value (E.coli [6]; 72 h after inoculation) was “-” and the “Ergebnis der Reisolierung qualitiativ” value (S.epidermidis [7]; 2 h after inoculation) was “- -”. The “Ergebnis der Reisolierung qualitiativ” value (S.epidermidis [7]; 4 h after inoculation) was “-”, the “Ergebnis der Reisolierung qualitiativ” value (S.epidermidis [7]; 6 h after inoculation) was “-” and the “Ergebnis der Reisolierung qualitiativ” value (S.epidermidis [7]; 8 h after inoculation) was “-”. The “Ergebnis der Reisolierung qualitiativ” value (S.epidermidis [7]; 24 h after inoculation) was “-”, the “Ergebnis der Reisolierung qualitiativ” value (S.epidermidis [7]; 32 h after inoculation) was “-” and the “Ergebnis der Reisolierung qualitiativ” value (S.epidermidis [7]; 48 h after inoculation) was “-”. For the same substance, the “Ergebnis der Reisolierung qualitiativ” value (S.epidermidis [7]; 72 h after inoculation) was “-”, the “Ergebnis der Reisolierung qualitiativ” value (Sc. pneumoniae [8]; 2 h after inoculation) was “-” and the “Ergebnis der Reisolierung qualitiativ” value (Sc. pneumoniae [8]; 4 h after inoculation) was “-”. The “Ergebnis der Reisolierung qualitiativ” value (Sc. pneumoniae [8]; 6 h after inoculation) was “-”, the “Ergebnis der Reisolierung qualitiativ” value (Sc. pneumoniae [8]; 8 h after inoculation) was “-” and the “Ergebnis der Reisolierung qualitiativ” value (Sc. pneumoniae [8]; 24 h after inoculation) was “-”. The “Ergebnis der Reisolierung qualitiativ” value (Sc. pneumoniae [8]; 32 h after inoculation) was “-”, the “Ergebnis der Reisolierung qualitiativ” value (Sc. pneumoniae [8]; 48 h after inoculation) was “-” and the “Ergebnis der Reisolierung qualitiativ” value (Sc. pneumoniae [8]; 72 h after inoculation) was “-”. For the same substance, the “Ergebnis der Reisolierung qualitiativ” value (H.influenzae [9]; 2 h after inoculation) was “-”, the “Ergebnis der Reisolierung qualitiativ” value (H.influenzae [9]; 4 h after inoculation) was “-” and the “Ergebnis der Reisolierung qualitiativ” value (H.influenzae [9]; 6 h after inoculation) was “-”. For the same substance, the “Ergebnis der Reisolierung qualitiativ” value (H.influenzae [9]; 8 h after inoculation) was “-”, the “Ergebnis der Reisolierung qualitiativ” value (H.influenzae [9]; 24 h after inoculation) was “-” and the “Ergebnis der Reisolierung qualitiativ” value (H.influenzae [9]; 32 h after inoculation) was “-”. The “Ergebnis der Reisolierung qualitiativ” value (H.influenzae [9]; 48 h after inoculation) was “-”, the “Ergebnis der Reisolierung qualitiativ” value (H.influenzae [9]; 72 h after inoculation) was “-” and the “Ergebnis der Reisolierung qualitiativ” value (P.aeruginosa [10]; 2 h after inoculation) was “- -”. For the same substance, the “Ergebnis der Reisolierung qualitiativ” value (P.aeruginosa [10]; 4 h after inoculation) was “-”, the “Ergebnis der Reisolierung qualitiativ” value (P.aeruginosa [10]; 6 h after inoculation) was “-” and the “Ergebnis der Reisolierung qualitiativ” value (P.aeruginosa [10]; 8 h after inoculation) was “-”. The “Ergebnis der Reisolierung qualitiativ” value (P.aeruginosa [10]; 24 h after inoculation) was “-”, the “Ergebnis der Reisolierung qualitiativ” value (P.aeruginosa [10]; 32 h after inoculation) was “-” and the “Ergebnis der Reisolierung qualitiativ” value (P.aeruginosa [10]; 48 h after inoculation) was “-”. The “Ergebnis der Reisolierung qualitiativ” value (P.aeruginosa [10]; 72 h after inoculation) was “-”.
